The values below come from patent US11236095B2 (priority 2007, dated 2022).

This data set is described as follows: Human dose prediction (human PK parameter estimation). The conditions noted are these: plasma, read-out: half-life, estimated (human) (converted).

`NC1(C(=O)N[C@@H](CCO)c2ccc(Cl)cc2)CCN(c2ncnc3[nH]ccc23)CC1` [Example 9, (S)-4-amino-N-(1-(4-chlorophenyl)-3-hydroxypropyl)-1-(7H-pyrrolo[2,3-d]pyrimidin-4-yl)piperidine-4-carboxamide]: the half-life was approximately 6 h.
